Source: patent publication US20100022620A1, “EPITOPE REDUCTION THERAPY” (priority 2006, published 2010)

Experiments:
[1] = target: T1, human α-1,3-fucosyltransferase V (Homo sapiens, UniProt Q11128); conditions: in the presence of guanosine diphosphate (GDP); cited from earlier work
T1 sequence (Q11128 1-374): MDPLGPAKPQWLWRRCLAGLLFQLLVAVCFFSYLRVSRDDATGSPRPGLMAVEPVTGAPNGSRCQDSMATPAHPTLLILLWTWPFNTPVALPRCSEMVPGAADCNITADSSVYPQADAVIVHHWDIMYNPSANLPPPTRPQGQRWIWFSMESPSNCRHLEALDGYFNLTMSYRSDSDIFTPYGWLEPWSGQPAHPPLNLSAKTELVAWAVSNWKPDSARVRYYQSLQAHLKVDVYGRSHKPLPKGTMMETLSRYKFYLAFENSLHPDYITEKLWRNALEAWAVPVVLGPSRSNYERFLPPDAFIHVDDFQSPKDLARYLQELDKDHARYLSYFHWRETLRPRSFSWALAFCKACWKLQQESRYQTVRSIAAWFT

PC12 cells [2] = assay: HPLC analysis of GSL levels in NB-DNJ treated PC12 cells; assay type: cell-based; conditions: day 3, PC12 cells, preliminary analysis
Procedure: (§1) PC12 cells were grown under standard undifferentiated conditions with and without a range of NB-DNJ concentrations (1, 5, 10, 50, 100 and 500 μM). Cells were grown in flasks for immunocytology and analytical studies on ganglioside levels and also in 96-well tissue culture plates for antibody mediated lysis studies. Time points examined were day 0, 1, 2 and 3, and 2 and 3 days post-compound wash out.
HPLC analysis of the treated and untreated cells was performed to determine the extent of GSL depletion that results from NB-DNJ treatment.

PC12 cells [3] = assay: HPLC analysis of PC12 gangliosides; assay type: cell-based; conditions: for ganglioside depletion in PC12 cells: HPLC (FIG. 17)
Procedure: In the absence of detectable binding by TLC immuno-overlay, a new technique was necessary to analyse the identity and relative abundance of gangliosides present on PC12 cells. To this end, HPLC was carried out on ganglioside extracted from PC12 cells grown in a range of NB-DGJ and NB-DNJ concentrations from 0-1 mM.

PC12 cells [4] = assay: Immunocytology: anti-GT1b antibody binding to PC12 cells by flow cytometry; assay type: cell-based; conditions: for reduction in anti-ganglioside antibody binding: 3 days of exposure, anti-GT1b mAb
Procedure: as §1
PC12 cells were grown in DMEM containing 7.5% FCS and 7.5% horse serum. The medium was supplemented with 0, 1, 5, 10, 50, 100 or 500 μM NB-DNJ and the cells cultured for 3 days. The media was then replaced with DMEM without NB-DNJ and the cells cultured for a further 3 days. At days 0, 1, 2, 3 and days 2 and 3 post NB-DNJ treatment, cells were harvested and ganglioside levels assessed by analysing anti-ganglioside antibody binding using flow cytometry. Briefly, 1×10^5 cells were stained with 10 μg/ml of a murine anti-GT1b mAb for 1 hour at room temperature. Binding was then detected by a FITC labelled antibody with specificity for mouse IgG. Binding is expressed in FIGS. 2 and 3 as the mean fluorescence of triplicate experiments. To allow any reduction in ganglioside levels to be clearly visualised at each time point, the mean fluorescence is shown as a percentage of that at day 0. Error bars indicate sem.

PC12 cells [5] = assay: Anti-ganglioside antibody / complement-mediated lysis of PC12 cells (LDH release); assay type: cell-based
Procedure: as §1
The consequences of reduced anti-ganglioside antibody binding treated cells were evaluated by measuring antibody-mediated cytotoxicity (FIGS. 4 and 5). Thus, cells from each day and NB-DNJ concentration were also assayed for anti-ganglioside antibody-mediated cytotoxicity. Lysis studies were conducted using anti-ganglioside antibodies in conjunction with fresh human serum as a source of complement. Cell viability was quantitated by colourimetric assay measuring LDH release upon cell lysis.
After coating onto 96 well tissue culture plates (5×10^3 cells/well), the cells were incubated with anti-GT1b antibody at 10 μg/ml for 1 hour at room temperature. Then, 10% human serum was added as a source of complement for a further hour at 37° C. Complement-mediated cell lysis was measured using a Cytotox 96 cytotoxic assay kit (Promega), following the instructions supplied. LDH released upon cell lysis was measured by a colourimetric assay; a tetrazolium salt is converted into a red formazan product. […]

RAW cells [6] = assay: TLC immuno-overlay of RAW cell ganglioside extract with GBS patient serum (anti-GM1 binding); assay type: cell-based; conditions: for GBS patient sera antibody binding to GM1: RAW cells grown in 0 to 1000 μM drug, patient '8' serum (FIG. 13)
Procedure: GSL was extracted from RAW cells incubated in a range of NB-DNJ and NB-DGJ concentrations from 0 to 1 mM and separated by TLC. Extract was run parallel to purified GM1 on duplicate TLC plates. Immuno-overlay was carried out using patient ‘8’ and control ‘4’ sera.
The procedure was then repeated with standardisation of the amount of material loaded onto the gel (FIG. 14). This was calculated using the bicinchoninic acid protein quantification method (Chan et al., 1993). […] No binding was observed when the overlay was conducted with control serum, indicating specificity of this effect to GBS auto-antibody.

[7] = cited from earlier work; for CNS penetration: mouse, in vivo; for neurological side effects: treatment of adult mice
RAW cells [8] = assay: Orcinol-stained TLC of GM1 in RAW cell extract; assay type: cell-based; conditions: for IC50: GM1 in RAW cells, stated only as comparable to 50 μM, read-out: apparent IC50 estimated from orcinol stained RAW TLC; for levels of GM1 in RAW cells: orcinol staining, 0 to 1000 μM drug (FIG. 15)
Excerpt: A third TLC plate (FIG. 15) with standardised amounts of sample was run in an identical manner to those in FIG. 14 but stained with orcinol.

Neuroblastoma NB1 cells = assay: Fluorescence microscopy of sera binding to Neuroblastoma NB1 cells; assay type: cell-based; conditions: NB1 cells treated with various concentrations; some GBS serum samples such as patient 7
Excerpt: This non-specific staining hinders interpretation of results when using whole sera. Cell staining indicated the necessity for a technique which provides isolated antigen, thereby reducing the potential of non-specific staining.

GSL levels = conditions: mice, cited from earlier work
sialyltransferase = conditions: cited from earlier work
[9] = test system: total ganglioside and GM1 content; conditions: cerebrum-brainstem; cited from earlier work
[10] = mouse models of GSL storage diseases; cited from earlier work
GSL biosynthesis = conditions: compared with NB-DNJ; cited from earlier work
rat recombinant α-2,3-ST = conditions: cited from earlier work
rat recombinant α-2,6-ST = target: T2, rat recombinant α-2,6-ST (Rattus norvegicus, UniProt P13721); conditions: cited from earlier work
T2 sequence (P13721 1-403): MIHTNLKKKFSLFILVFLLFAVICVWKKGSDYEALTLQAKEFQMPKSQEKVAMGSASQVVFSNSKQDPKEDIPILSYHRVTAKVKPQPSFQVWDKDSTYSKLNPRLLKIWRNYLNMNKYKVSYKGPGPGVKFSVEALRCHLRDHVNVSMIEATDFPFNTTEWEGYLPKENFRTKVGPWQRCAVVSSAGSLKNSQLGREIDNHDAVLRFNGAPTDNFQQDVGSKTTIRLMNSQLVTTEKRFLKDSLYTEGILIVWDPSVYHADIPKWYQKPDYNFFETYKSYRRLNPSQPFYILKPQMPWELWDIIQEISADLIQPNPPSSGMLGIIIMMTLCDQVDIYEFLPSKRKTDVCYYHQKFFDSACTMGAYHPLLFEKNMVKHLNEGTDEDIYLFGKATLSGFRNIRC

[11] = RAW cells, standardised amount of material (FIG. 14)

CCCO[C@H]1O[C@H](CO)[C@@H](O[C@@H]2O[C@H](CO)[C@H](O)[C@H](O)[C@H]2O)[C@H](OCCN2C(C)C(O)C(O)C(O)C2CO)[C@H]1NC(C)=O (stereo partly drawn) [propyl 2-acetamido-2-deoxy-4-O-(β-D-galactopyranosyl)-3-O-(2-(N-(β-L-homofaconojirimycinyl))ethyl)-α-D-glucopyranoside]
inhibition of human α-1,3-fucosyltransferase V [1]: effective inhibitor

CCCCN1C[C@H](O)[C@@H](O)[C@H](O)[C@H]1CO [NB-DNJ, N-butyldeoxynojirimycin]
GSL levels (PC12 cells [2]): 10-20 % of control
ganglioside depletion in PC12 cells (PC12 cells [3]; 50 μM): significant ganglioside depletion
ganglioside depletion in PC12 cells (PC12 cells [3]; 1 mM): Further depletion
anti-ganglioside antibody binding (PC12 cells [4]; 50 μM and higher concentrations): significant time dependent reduction
reduction in anti-ganglioside antibody binding (PC12 cells [4]; 100 μM): 70%
reduction in anti-ganglioside antibody binding (PC12 cells [4]; 500 μM): 90%
anti-ganglioside antibody binding after wash out of the compound (PC12 cells [4]; by day 3 post wash out): returning to the levels of untreated cells
protection from complement mediated lysis (PC12 cells [5]; 100 uM): approximately 60%
protection from complement mediated lysis (PC12 cells [5]; 500 uM): ~80%
GBS patient sera antibody binding to GM1 (RAW cells [6]): drug dependent decrease
patient anti-GM1 antibody binding as drug concentration was increased (RAW cells [6]; [11]): progressively lower levels
CNS penetration [7]: penetrate the CNS
neurological side effects [7]: not to cause neurological side effects
IC50 (RAW cells [8]): ~50 µM
levels of GM1 in RAW cells (RAW cells [8]): drug dependent decrease
fluorescence of serum binding on drug-treated cells (Neuroblastoma NB1 cells): decrease in fluorescence
time at which effect on GSL levels stabilizes (GSL levels): 10 days
GSL levels (GSL levels; within a day of treatment): measurable decrease

C[C@@H]1O[C@@H](O[C@H]2[C@H](O[C@H]3[C@H](O[C@H]4CC[C@@]5(C)[C@@H](CC[C@]6(C)[C@@H]5CC=C5[C@@H]7CC(C)(C)C[C@@H](O)[C@]7(C)CC[C@]56C)[C@@]4(C)CO)O[C@H](C(=O)O)[C@@H](O)[C@@H]3O)O[C@H](CO)[C@H](O)[C@@H]2O)[C@H](O)[C@H](O)[C@H]1O [Soyasaponin I]
sialyltransferase inhibition (sialyltransferase): potent and specific

CCCCN1C[C@H](O)[C@@H](O)[C@@H](O)[C@H]1CO [NB-DGJ, N-butyldeoxygalactonojirimycin]
ganglioside depletion in PC12 cells (PC12 cells [3]; 50 μM): significant ganglioside depletion
ganglioside depletion in PC12 cells (PC12 cells [3]; 1 mM): Further depletion
inhibitor potency, comparison of the two drugs (PC12 cells [3]; PC12 cells, HPLC): more a potent inhibitor
total ganglioside and GM1 content [9]: marked reduction
GBS patient sera antibody binding to GM1 (RAW cells [6]): drug dependent decrease
drug dependent decrease in antibody binding to GM1, comparison of the two drugs (RAW cells [6]; RAW cells, FIG. 13): slightly more efficient
decrease of patient anti-GM1 antibody binding, comparison of the two drugs (RAW cells [6]; [11]): more pronounced
patient anti-GM1 antibody binding as drug concentration was increased (RAW cells [6]; [11]): progressively lower levels
tolerability [10]: very well tolerated
CNS penetration [7]: penetrate the CNS
neurological side effects [7]: not to cause neurological side effects
IC50 (RAW cells [8]): ~50 µM
levels of GM1 in RAW cells (RAW cells [8]): drug dependent decrease
inhibition of GSL biosynthesis (GSL biosynthesis): comparably to NB-DNJ
fluorescence of serum binding on drug-treated cells (Neuroblastoma NB1 cells): decrease in fluorescence

cytidin-5′-yl sialylethylphosphonate
IC50 (rat recombinant α-2,3-ST): 47 µM
IC50 (rat recombinant α-2,6-ST): 340 µM
